Biological target: human 5-HT2C receptor (Homo sapiens, UniProt P28335, I156V/I160V/N158S)
Test: cell-based

Sequence of human 5-HT2C receptor (P28335 33-458 I156V/N158S/I160V limits assumed): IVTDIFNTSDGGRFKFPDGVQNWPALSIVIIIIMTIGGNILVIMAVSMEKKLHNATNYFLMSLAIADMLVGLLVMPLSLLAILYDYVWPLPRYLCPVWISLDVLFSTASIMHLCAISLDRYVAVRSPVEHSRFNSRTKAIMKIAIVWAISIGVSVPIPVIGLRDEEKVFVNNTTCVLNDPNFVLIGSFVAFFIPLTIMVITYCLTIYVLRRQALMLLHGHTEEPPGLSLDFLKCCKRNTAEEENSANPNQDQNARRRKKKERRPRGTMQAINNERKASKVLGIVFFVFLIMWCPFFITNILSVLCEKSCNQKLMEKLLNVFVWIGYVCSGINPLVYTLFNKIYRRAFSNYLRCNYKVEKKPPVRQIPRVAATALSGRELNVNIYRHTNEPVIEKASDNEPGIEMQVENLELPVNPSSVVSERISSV

Row | SMILES | EC50
1 | CN1CCN(C(=O)C2CN(c3c4c(nc5ccnn35)CCNCC4)C2)CC1 [Example 37.35] | 4 nM
2 | O=C(C1CN(c2c3c(nc4ccnn24)CCNCC3)C1)N1CCC(c2cc(Cl)cc(Cl)c2)CC1 [Example 31.214] | 471 nM
3 | O=C(C1CN(c2c3c(nc4ccnn24)CCNCC3)C1)N1CCN(CC2CC2)CC1 [Example 37.17] | 3 nM
4 | CC(C)CCNC(=O)C1CN(c2c3c(nc4ccnn24)CCNCC3)C1 [Example 37.82] | 33 nM
5 | O=C(C1CN(c2c3c(nc4ccnn24)CCNCC3)C1)N1CC[C@@H]2CCCC[C@@H]2C1 [Example 31.131] | 74 nM
6 | CN1C(C)(C)CC(NC(=O)C2CN(c3c4c(nc5ccnn35)CCNCC4)C2)CC1(C)C [Example 37.106] | 9 nM
7 | O=C(C1CN(c2c3c(nc4ccnn24)CCNCC3)C1)N1CCN(C2CCCCC2)CC1 [Example 37.38] | 3 nM
8 | Cc1cnn2c(N3CC(C(=O)N4CCC5(CCCC5)C4)C3)c3c(nc12)CCNCC3 [Example 31.248] | 25 nM
9 | CN(Cc1ccccc1Br)C(=O)C1CN(c2c3c(nc4ccnn24)CCNCC3)C1 [Example 31.78] | 83 nM
10 | O=C(C1CN(c2c3c(nc4ccnn24)CCNCC3)C1)N1CCC(O)(c2ccc(C(F)(F)F)cc2)CC1 [Example 31.227] | 92 nM
11 | O=C(C1CN(c2c3c(nc4ccnn24)CCNCC3)C1)N1CCc2sccc2C1 [Example 31.36] | 57 nM
12 | CN(Cc1ccc(C#N)cc1)C(=O)C1CN(c2c3c(nc4c(Br)cnn24)CCNCC3)C1 [Example 31.139] | 16 nM
13 | O=C(C1CN(c2c3c(nc4ccnn24)CCNCC3)C1)N1CCCC(Cc2ccc(F)cc2)C1 (centres unmarked) [Example 31.101] | 62 nM
14 | CN(CC1CCCCC1)C(=O)C1CN(c2c3c(nc4ccnn24)CCNCC3)C1 [Example 31.100] | 158 nM
15 | CN(Cc1cccc2ccccc12)C(=O)C1CN(c2c3c(nc4ccnn24)CCNCC3)C1 [Example 31.76] | 81 nM
16 | C#CC1(NC(=O)C2CN(c3c4c(nc5ccnn35)CCNCC4)C2)CCCCC1 [Example 37.79] | 62 nM
17 | CC1CCCN1c1c2c(nc3ccnn13)CCNCC2 (centres unmarked) [Example 1.13] | 2300 nM
18 | COc1ccc2c(c1)CCN2C(=O)CC1CN(c2c3c(nc4ccnn24)CCNCC3)C1 [Example 33.3] | 12 nM
19 | CN1CCc2nc3ccnn3c(N3CC(C(=O)N4CCN(C(=O)C5CC5)CC4)C3)c2CC1 [Example 36.43] | 264 nM
20 | CC1CNCCc2c1nc1ccnn1c2N1CC(C(=O)N2CCC(C)(C)C2)C1 (centres unmarked) [Example 42, (3,3-Dimethyl-pyrrolidin-1-yl)-[1-(5-methyl-6,7,8,9-tetrahydro-5H-1,4,7,10a-tetraaza-cyclohept[f]inden-10-yl)-azetidin-3-yl]-methanone] | 31 nM
21 | CN(C)C1CCN(C(=O)C2CN(c3c4c(nc5ccnn35)CCNCC4)C2)CC1 [Example 37.2] | 1 nM
22 | CN(CCc1cccc(C(F)(F)F)c1)C(=O)C1CN(c2c3c(nc4ccnn24)CCNCC3)C1 [Example 31.89] | 133 nM
23 | CC(C)(O)[C@@H]1CCCN1C(=O)C1CN(c2c3c(nc4ccnn24)CCNCC3)C1 [Example 31.194] | 2560 nM
24 | c1ccc(CC2CN(c3c4c(nc5ccnn35)CCNCC4)C2)nc1 [Example 18, 10-(3-Pyridin-2-ylmethyl-azetidin-1-yl)-6,7,8,9-tetrahydro-5H-1,4,7,10a-tetraaza-cyclohepta[f]indene] | 451 nM
25 | O=C(NC1CCC(C(F)(F)F)CC1)C1CN(c2c3c(nc4ccnn24)CCNCC3)C1 (centres unmarked) [Example 37.60] | 49 nM
26 | c1ccc(C2CCN(c3c4c(nc5ccnn35)CCNCC4)C2)cc1 (centres unmarked) [Example 1.26] | 160 nM

Row | SMILES | EC50
27 | O=C(C1CN(c2c3c(nc4ccnn24)CCNCC3)C1)N1CC=CCC1 [Example 31.178] | 109 nM
28 | Cc1cccc(CN(C)C(=O)C2CN(c3c4c(nc5ccnn35)CCNCC4)C2)c1 [Example 31.49] | 51 nM
29 | CN1CCc2nc3ccnn3c(N3CC(C(=O)N4CCC(N(C)C)CC4)C3)c2CC1 [Example 36.5] | 51 nM
30 | Cc1cnn2c(N3CC(C(=O)N(C)Cc4ccc(C#N)cc4)C3)c3c(nc12)CCNCC3 [Example 31.250] | 9 nM
31 | O=C(C1CN(c2c3c(nc4ccnn24)CCNCC3)C1)N1CCC(N2CCOCC2)CC1 [Example 37.19] | 5 nM
32 | O=C(NC1CCC(F)(F)CC1)C1CN(c2c3c(nc4ccnn24)CCNCC3)C1 [Example 37.47] | 126 nM
33 | CC1CNCCc2c1nc1c(Br)cnn1c2N1CCC1 (centres unmarked) [Example 4, 10-Azetidin-1-yl-3-bromo-5-methyl-6,7,8,9-tetrahydro-5H-1,4,7,10a-tetraaza-cyclohepta[f]indene] | 679 nM
34 | O=C(NCCC1CCCC1)C1CN(c2c3c(nc4ccnn24)CCNCC3)C1 [Example 37.62] | 10 nM
35 | CCn1c(C2CN(c3c4c(nc5ccnn35)CCNCC4)C2)nc2ccccc21 [Example 34.2] | 150 nM
36 | O=C(NC1CCCCC1C(F)(F)F)C1CN(c2c3c(nc4ccnn24)CCNCC3)C1 (centres unmarked) [Example 37.58] | 224 nM
37 | CN(Cc1ccc(OC(F)F)cc1)C(=O)C1CN(c2c3c(nc4ccnn24)CCNCC3)C1 [Example 31.161] | 15 nM
38 | CC1(NC(=O)C2CN(c3c4c(nc5ccnn35)CCNCC4)C2)CCCC1 [Example 37.80] | 124 nM
39 | CC(C)C1CCN(C(=O)C2CN(c3c4c(nc5ccnn35)CCNCC4)C2)CC1 [Example 31.85] | 23 nM
40 | CN(C(=O)C1CN(c2c3c(nc4ccnn24)CCNCC3)C1)C1CCCCC1 [Example 31.179] | 1690 nM
41 | Cc1cnn2c(N3CC(C(=O)N(C)Cc4ccc(OC(F)F)cc4)C3)c3c(nc12)CCNCC3 [Example 31.249] | 16 nM
42 | COc1cccc(F)c1OCC1CN(c2c3c(nc4ccnn24)CCNCC3)C1 [Example 15.23] | 47 nM
43 | O=C(CC1CN(c2c3c(nc4ccnn24)CCNCC3)C1)N1CCc2cc(F)ccc21 [Example 33.2] | 20 nM
44 | Clc1ccccc1OC1CCN(c2c3c(nc4ccnn24)CCNCC3)CC1 [Example 1.55] | 2780 nM
45 | O=C(C1CN(c2c3c(nc4ccnn24)CCNCC3)C1)N1CCc2ccccc2CC1 [Example 31.33] | 196 nM
46 | Clc1cccnc1OC1CN(c2c3c(nc4ccnn24)CCNCC3)C1 [Example 20.11] | 116 nM
47 | OC1CCCN(c2c3c(nc4ccnn24)CCNCC3)C1 (centres unmarked) [Example 1.38] | 1810 nM
48 | CC(C)C1(O)CCN(C(=O)C2CN(c3c4c(nc5ccnn35)CCN(C)CC4)C2)CC1 [Example 36.26] | 191 nM
49 | CN1CCc2nc3ccnn3c(N3CC(C(=O)N4CCC(F)CC4)C3)c2CC1 [Example 36.29] | 279 nM
50 | CC(C)c1ccccc1OC1CCN(C(=O)C2CN(c3c4c(nc5ccnn35)CCNCC4)C2)CC1 [Example 31.219] | 124 nM
51 | CN1CCc2nc3ccnn3c(N3CC(C(=O)N4CCN(C5CCCCC5)CC4)C3)c2CC1 [Example 36.54] | 97 nM
52 | O=C(C1CN(c2c3c(nc4ccnn24)CCNCC3)C1)N1CCC2(CCCCC2)CC1 [Example 31.35] | 50 nM

Row | SMILES | EC50
53 | c1cnn(CC2CN(c3c4c(nc5ccnn35)CCNCC4)C2)c1 [Example 17, 10-(3-Pyrazol-1-ylmethyl-azetidin-1-yl)-6,7,8,9-tetrahydro-5H-1,4,7,10a-tetraaza-cyclohepta[f]indene] | 15 nM
54 | CC(C)COC1CN(c2c3c(nc4ccnn24)CCNCC3)C1 [Example 20.1] | 359 nM
55 | CC(C)N1CCN(C(=O)C2CN(c3c4c(nc5ccnn35)CCNCC4)C2)CC1 [Example 37.3] | 3 nM
56 | c1csc(COC2CN(c3c4c(nc5ccnn35)CCNCC4)C2)n1 [Example 20.14] | 23 nM
57 | CCC(C)CNC(=O)C1CN(c2c3c(nc4ccnn24)CCNCC3)C1 (centres unmarked) [Example 37.86] | 41 nM
58 | O=C(NCC1CCCCO1)C1CN(c2c3c(nc4ccnn24)CCNCC3)C1 (centres unmarked) [Example 37.55] | 66 nM
59 | CN(Cc1cccc(Cl)c1Cl)C(=O)C1CN(c2c3c(nc4ccnn24)CCNCC3)C1 [Example 31.168] | 107 nM
60 | Cc1cnn2c(N3CCCCC3)c3c(nc12)CCNCC3 [Example 27.1] | 37 nM
61 | Cc1cc(C#N)cc(C)c1OC1CN(c2c3c(nc4ccnn24)CCNCC3)C1 [Example 35.15] | 20 nM
62 | CC(C)CN1CCN(C(=O)C2CN(c3c4c(nc5ccnn35)CCNCC4)C2)CC1 [Example 37.15] | 3 nM
63 | COCCNC(=O)C1CN(c2c3c(nc4ccnn24)CCNCC3)C1 [Example 37.73] | 88 nM
64 | CC1(C)CC(NC(=O)C2CN(c3c4c(nc5ccnn35)CCNCC4)C2)CC(C)(C)N1 [Example 37.7] | 15 nM
65 | FC(F)(F)c1ccc2c(c1)nc(C1CN(c3c4c(nc5ccnn35)CCNCC4)C1)n2Cc1ccccc1 [Example 34.34] | 2090 nM
66 | Cc1ccc2c(c1)CCN2C(=O)C1CN(c2c3c(nc4ccnn24)CCNCC3)C1 [Example 31.156] | 135 nM
67 | CN(Cc1cccs1)C(=O)C1CN(c2c3c(nc4ccnn24)CCNCC3)C1 [Example 31.43] | 35 nM
68 | O=C(C1CCCN(c2c3c(nc4ccnn24)CCNCC3)C1)N1CCC(C2CCCCC2)CC1 (centres unmarked) [Example 1.58] | 4710 nM
69 | O=C(C1CN(c2c3c(nc4ccnn24)CCNCC3)C1)N1CCC(c2ccc(C(F)(F)F)cc2)CC1 [Example 31.109] | 83 nM
70 | COCC1(CNC(=O)C2CN(c3c4c(nc5ccnn35)CCNCC4)C2)CCCC1 [Example 37.69] | 73 nM
71 | Cc1ccc(F)c(OCC2CN(c3c4c(nc5ccnn35)CCNCC4)C2)c1 [Example 15.5] | 7 nM
72 | O=C(C1CN(c2c3c(nc4c(Br)cnn24)CCNCC3)C1)N1CCC2(CCOC2)CC1 [Example 31.137] | 71 nM
73 | O=C(C1CN(c2c3c(nc4ccnn24)CCNCC3)C1)N1CCC(c2ccccc2)(c2ccccc2)CC1 [Example 31.72] | 819 nM
74 | c1cc2nc3c(c(N4CCOCC4)n2n1)CCNCC3 [Example 7, 10-Morpholin-4-yl-6,7,8,9-tetrahydro-5H-1,4,7,10a-tetraaza-cyclohepta[f]indene] | 2580 nM
75 | CCN(C)C(=O)C1CN(c2c3c(nc4ccnn24)CCNCC3)C1 [Example 31.4] | 685 nM
76 | CC1(C(=O)N2CCC3(CCOC3)CC2)CN(c2c3c(nc4ccnn24)CCNCC3)C1 [Example 32.4] | 4270 nM
77 | COc1ccc2c(c1)CCN(c1c3c(nc4ccnn14)CCNCC3)C2 [Example 1.23] | 522 nM

Reference: patent publication US20120165304A1, “6,7,8,9-Tetrahydro-5H-1,4,7,10a-tetraaza-cyclohept[f]indene derivatives, pharmaceutical compositions containing these compounds, their use and processes for preparing them” (BOEHRINGER INGELHEIM INTERNATIONAL GMBH, priority 2008, published 2012)
